Where two headings read alike, the source gives them in different places.
Tests used:
human 5-HT2A receptor [1] = molecular target: T1, human 5-HT2A receptor (Homo sapiens, UniProt P28223); assay: cell-based; format: cell-based
T1 construct: expressed in transfected cells

human 5-HT2B receptor [2] = molecular target: T2, human 5-HT2B receptor (Homo sapiens, UniProt P41595); assay: cell-based; format: cell-based; conditions: for Rel. eff h5-HT2B: fraction of response to 10 μM 5-HT
T2 construct: expressed in transfected cells

canine 5-HT2A receptor [3] = molecular target: T3, canine 5-HT2A receptor (Canis lupus familiaris, UniProt O46635); assay: biochemical
canine 5-HT2A receptor [4] = molecular target: T3, canine 5-HT2A receptor; assay: cell-based; format: cell-based; design: The resulting 5-HT2A full length cDNA was cloned into the pCIneo vector; expressed in transfected cells; conditions: for Rel. eff. c5-HT2A: HEK-293, fraction of response to 10 μM 5-HT; for agonist potency at canine 5-HT2A compared to human 5-HT2A: Table 3
canine 5-HT2B receptor [5] = molecular target: T4, canine 5-HT2B receptor (Canis lupus familiaris, UniProt Q50DZ8); assay: biochemical; format: binding; design: Apparent equilibrium dissociation constant KD; other: canine 5-HT2B, COS-7 membranes, mean ± S.E.M. (n = 3 to 6); other: COS-7 membranes; head prints [^3H]-ketanserin; mean ± S.E.M of 3-8 experiments; KD of radioligand; other: canine 5-HT2B, transfected COS-7 membranes; other: HEK-293, Ca^2+ FLIPR, mean ± S.E.M of 3 to 6 experime
canine 5-HT2B receptor [6] = molecular target: T4, canine 5-HT2B receptor; assay: cell-based; format: cell-based; design: Apparent equilibrium dissociation constant KD; other: canine 5-HT2B, COS-7 membranes, mean ± S.E.M. (n = 3 to 6); other: COS-7 membranes; head prints [^3H]-ketanserin; mean ± S.E.M of 3-8 experiments; KD of radioligand; other: canine 5-HT2B, transfected COS-7 membranes; other: HEK-293, Ca^2+ FLIPR, mean ± S.E.M of 3 to 6 experime; conditions: for Rel. eff. c5-HT2B: HEK-293, fraction of response to 10 μM 5-HT
human 5-HT2A receptor [7] = molecular target: T1, human 5-HT2A receptor; assay: biochemical; format: binding
human 5-HT2B receptor [8] = molecular target: T2, human 5-HT2B receptor; assay: biochemical; format: binding
canine 5-HT2A receptor [9] = molecular target: T3, canine 5-HT2A receptor; assay: Saturation binding of [^3H]5-HT to membranes of COS-7 cells transfected with canine 5-HT2A receptor
canine 5-HT2B receptor [10] = assay: biochemical; format: binding; conditions: ratio of binding affinities canine vs human 5-HT2B
canine 5-HT2A receptor [11] = molecular target: T3, canine 5-HT2A receptor; conditions: for Ratio c5-HT2A vs. h5-HT2A: ratio of binding affinities canine vs human 5-HT2A
[12] = tested on: non-transfected cells (HEK-293, NIH3T3 or CHO); assay: FLIPR Ca^2+ assay in non-transfected cells; format: cell-based; conditions: non-transfected HEK-293, CHO or NIH3T3 cells
Protocol: Dye-loaded cells were plated onto 96-well ViewPlates (Packard, Meriden, Conn.) and incubated at 37° C. and 5% CO2 for one hour. Once dye-loaded, dye media was replaced with serum-free DMEM/F-12. […] Ligand-induced Ca^2+ release was measured using a Fluorometric Imaging Plate Reader (FLIPR, Molecular Devices, Sunnyvale, Calif.). Functional responses were measured as peak fluorescence intensity minus basal. The concentration of agonist that produced a half-maximal response is represented by the EC50 value. […] Antagonistic potency values were converted to apparent pKB values using a modified Cheng-Prusoff correction. Apparent pKB=−log IC50/1+[conc agonist/EC50]. Data are expressed as mean±S.E.M.
None of the compounds (10 μM) tested elicited a response in non-transfected cells (HEK-293, NIH3T3 or CHO). In addition, none of the antagonists tested increased Ca^2+ in any of the transfected cell types.

[13] = read-out: Affinity constant pKI h5-HT2B (converted)
[14] = read-out: Affinity constant pKI c5-HT2B (converted)
[15] = CHO, Ca^2+ FLIPR, apparent pKB, mean ± S.E.M of 3 to 6 experiments, read-out: Antagonist affinity pKB h5-HT2B (converted)
[16] = HEK-293, Ca^2+ FLIPR, apparent pKB, mean ± S.E.M of 3 to 6 experiments, read-out: Antagonist affinity pKB c5-HT2B (converted)
[17] = HEK-293, Ca^2+ FLIPR, apparent pKB, mean ± S.E.M of 3 to 6 experiments

T1 sequence (P28223 whole entry): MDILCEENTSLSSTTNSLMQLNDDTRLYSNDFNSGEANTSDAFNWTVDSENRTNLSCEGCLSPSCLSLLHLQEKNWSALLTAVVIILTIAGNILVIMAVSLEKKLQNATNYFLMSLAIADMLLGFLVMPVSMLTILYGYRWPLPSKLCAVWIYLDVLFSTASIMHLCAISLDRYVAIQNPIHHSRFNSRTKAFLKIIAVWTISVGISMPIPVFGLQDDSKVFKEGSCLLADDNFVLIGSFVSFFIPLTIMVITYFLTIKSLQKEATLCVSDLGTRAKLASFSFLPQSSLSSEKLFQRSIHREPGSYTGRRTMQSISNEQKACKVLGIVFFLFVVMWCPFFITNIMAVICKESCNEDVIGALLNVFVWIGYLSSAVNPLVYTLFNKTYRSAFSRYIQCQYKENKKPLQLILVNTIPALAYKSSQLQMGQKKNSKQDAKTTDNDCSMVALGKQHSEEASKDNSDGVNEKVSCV
T2 sequence (P41595 whole entry): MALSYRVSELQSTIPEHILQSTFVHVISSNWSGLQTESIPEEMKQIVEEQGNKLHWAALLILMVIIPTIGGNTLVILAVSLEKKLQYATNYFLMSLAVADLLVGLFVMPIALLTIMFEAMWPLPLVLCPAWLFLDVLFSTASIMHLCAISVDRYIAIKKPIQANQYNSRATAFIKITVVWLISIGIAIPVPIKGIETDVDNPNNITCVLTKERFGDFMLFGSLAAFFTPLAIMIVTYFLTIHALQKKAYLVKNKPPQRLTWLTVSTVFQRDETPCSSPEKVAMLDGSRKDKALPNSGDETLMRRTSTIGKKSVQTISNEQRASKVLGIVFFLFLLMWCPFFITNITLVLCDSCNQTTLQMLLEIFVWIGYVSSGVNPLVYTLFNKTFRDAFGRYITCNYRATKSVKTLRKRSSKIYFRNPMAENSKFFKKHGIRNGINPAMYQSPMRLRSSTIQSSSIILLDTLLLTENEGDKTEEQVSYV
T3 sequence (O46635 whole entry): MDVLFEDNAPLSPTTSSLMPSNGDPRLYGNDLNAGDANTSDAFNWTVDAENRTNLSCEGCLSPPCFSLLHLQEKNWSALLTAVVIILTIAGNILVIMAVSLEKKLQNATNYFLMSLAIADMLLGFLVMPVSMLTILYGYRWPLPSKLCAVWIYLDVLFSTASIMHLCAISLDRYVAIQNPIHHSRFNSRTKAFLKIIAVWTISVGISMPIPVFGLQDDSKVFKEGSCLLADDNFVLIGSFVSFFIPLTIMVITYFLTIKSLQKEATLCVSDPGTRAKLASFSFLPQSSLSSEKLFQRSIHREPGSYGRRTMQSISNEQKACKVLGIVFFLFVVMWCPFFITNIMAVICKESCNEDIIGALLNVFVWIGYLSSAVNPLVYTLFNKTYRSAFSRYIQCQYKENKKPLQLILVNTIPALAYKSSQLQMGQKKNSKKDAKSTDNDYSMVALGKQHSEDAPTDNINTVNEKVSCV

Clc1cccc(N2CCNCC2)c1 [m-CPP, 1-(3-chlorophenyl)piperazine]
Rel. eff. h5-HT2A (human 5-HT2A receptor [1]): 0.20 ± 0.02
Rel. eff h5-HT2B (human 5-HT2B receptor [2]; CHO): 0.55 ± 0.06
Ki (canine 5-HT2A receptor [3]): 195 nM
Rel. eff. c5-HT2A (canine 5-HT2A receptor [4]): 0.71 ± 0.04
agonist potency at canine 5-HT2A compared to human 5-HT2A (canine 5-HT2A receptor [4]; functional Ca^2+ assay): higher potencies
Ki (canine 5-HT2B receptor [5]): 20.9 nM
agonistic response on canine 5-HT2B receptor (canine 5-HT2B receptor [6]; HEK-293, Ca^2+ FLIPR): no agonistic response

CN1CCc2cc(Cl)c(O)cc2[C@@H](c2ccccc2)C1 [SCH-23390, R-(+)-7-chloro-8-hydroxy-3-methyl-1-phenyl-2,3,4,5-tetrahydro(1H)-3-benzapine]
Ki (human 5-HT2A receptor [7]): 13.5 nM
Ki (human 5-HT2B receptor [8]; [13]): 275 nM
Ki (canine 5-HT2A receptor [3]): 16.2 nM
Ki (canine 5-HT2B receptor [5]; [14]): 309 nM

COC(=O)[C@@H]1[C@H]2C[C@H]3c4[nH]c5ccccc5c4CCN3C[C@@H]2CC[C@@H]1O [Yohimbine, yohimbine]
Ki (canine 5-HT2B receptor [5]): 81.3 nM
Kb (canine 5-HT2B receptor [6]): 1.58 nM

CN1C[C@@H](NS(=O)(=O)N(C)C)C[C@@H]2c3cccc4c3c(cn4C)C[C@H]21 [[^3H]-mesulergine]
Kd (canine 5-HT2B receptor [5]; canine 5-HT2B, transfected COS-7 membranes, read-out: KD of radioligand): 5.43 ± 0.69 nM

CC(N)Cc1c[nH]c2ccc(OCc3cccs3)cc12 (centres unmarked) [BW-723C86, 1-{5-(2-thienyl-methoxy)-1H-3-indolyl}propan-2-amine]
Rel. eff h5-HT2B (human 5-HT2B receptor [2]; CHO): 0.98 ± 0.01
Ki (canine 5-HT2B receptor [5]): 26.3 nM
Rel. eff. c5-HT2B (canine 5-HT2B receptor [6]): 0.93 ± 0.03

O=C(c1ccc(F)cc1)C1CCN(CCn2c(=O)[nH]c3ccccc3c2=O)CC1 [Ketanserin, ketanserin]
Ki (canine 5-HT2A receptor [3]): 14.5 nM
Kb (canine 5-HT2A receptor [4]): 1.26 nM
Ki (canine 5-HT2B receptor [5]): 631 nM
Kb (canine 5-HT2B receptor [6]): 1580 nM

COc1cc(CC(C)N)c(OC)cc1I (centres unmarked) [DOI, 1-(2,5-dimethoxy-4-iodophenyl)-2-aminopropane]
Ki (human 5-HT2B receptor [8]): 15.1 nM
Rel. eff. h5-HT2A (human 5-HT2A receptor [1]): 0.65 ± 0.04
Rel. eff h5-HT2B (human 5-HT2B receptor [2]; CHO): 0.96 ± 0.02
Ki (canine 5-HT2A receptor [3]): 12 nM
Rel. eff. c5-HT2A (canine 5-HT2A receptor [4]): 0.89 ± 0.02
Ki (canine 5-HT2B receptor [5]): 13.2 nM
Rel. eff. c5-HT2B (canine 5-HT2B receptor [6]): 0.75 ± 0.03

CN(C)CCO/N=C(/C=C/c1ccc(O)cc1)c1ccccc1F [Eplivanserin, eplivanserin]
Ki (human 5-HT2A receptor [7]; read-out: Affinity constant pKI h5-HT2A (converted)): 0.2 nM
Ki (human 5-HT2B receptor [8]; [13]): 1410 nM
Kb (human 5-HT2A receptor [1]; NIH3T3, Ca^2+ FLIPR, apparent pKB, mean ± S.E.M of 3 to 6 experiments, read-out: Antagonist affinity pKB h5-HT2A (converted)): 0.372 nM
Kb (human 5-HT2B receptor [2]; [15]): > 10000 nM
Ki (canine 5-HT2A receptor [3]): 1 nM
Kb (canine 5-HT2A receptor [4]; HEK-293, Ca^2+ FLIPR, apparent pKB, mean ± S.E.M of 3 to 6 experiments, read-out: Antagonist affinity pKB c5-HT2A (converted)): 0.251 nM
Ki (canine 5-HT2B receptor [5]; [14]): 1910 nM
Kb (canine 5-HT2B receptor [6]; [16]): > 10000 nM

COc1ccc2[nH]cc(C3=CCNCC3)c2c1 [RU-24969, 5-methoxy-3(1,2,3,6-tetrahydro-4-pyridiny)-1H-indole]
Ki (canine 5-HT2B receptor [5]): 12.9 nM

CN1C[C@@H](NS(=O)(=O)N(C)C)C[C@@H]2c3cccc4c3c(cn4C)C[C@H]21 [Mesulergine, mesulergine]
Ki (human 5-HT2A receptor [7]): 22.9 nM
Ki (human 5-HT2B receptor [8]): 8.71 nM
Kb (human 5-HT2A receptor [1]): 58.9 nM
Kb (human 5-HT2B receptor [2]): 2.34 nM
Ki (canine 5-HT2A receptor [3]): 91.2 nM
Kb (canine 5-HT2A receptor [4]): 25.1 nM
Ki (canine 5-HT2B receptor [5]; [14]): 17 nM
Kb (canine 5-HT2B receptor [6]; [16]): 0.501 nM

Cc1nc2sccn2c(=O)c1CCN1CCC(=C(c2ccc(F)cc2)c2ccc(F)cc2)CC1 [Ritanserin, ritanserin]
Ki (human 5-HT2B receptor [8]): 4.57 nM
Kb (human 5-HT2B receptor [2]): 5.89 nM
Ki (canine 5-HT2A receptor [3]): 7.59 nM
Kb (canine 5-HT2A receptor [4]): 7.08 nM
Ki (canine 5-HT2B receptor [5]): 3.98 nM
Kb (canine 5-HT2B receptor [6]): 10 nM

NCCc1c[nH]c2ccc(O)cc12 [[^3H]-5-HT]
Kd (canine 5-HT2A receptor [9]): 3 ± 0.6 nM

O=C(c1ccc(F)cc1)C1CCN(CCn2c(=O)[nH]c3ccccc3c2=O)CC1 [[^3H]-ketanserin]
Kd (canine 5-HT2A receptor [3]): 1.3 ± 0.12 nM

NCCc1c[nH]c2ccc(C(N)=O)cc12 [5-CT, 5-carboxyamidotryptamine]
Ki (human 5-HT2A receptor [7]): 1150 nM
Ratio c5-HT2B vs. h5-HT2B (canine 5-HT2B receptor [10]): 1.20
Ki (human 5-HT2B receptor [8]): 61.7 nM
Rel. eff. h5-HT2A (human 5-HT2A receptor [1]): 0.70 ± 0.13
Rel. eff h5-HT2B (human 5-HT2B receptor [2]; CHO): 0.95 ± 0.01
Ratio c5-HT2A vs. h5-HT2A (canine 5-HT2A receptor [11]): 1.99
Ki (canine 5-HT2A receptor [3]): 2290 nM
Rel. eff. c5-HT2A (canine 5-HT2A receptor [4]): 0.94 ± 0.08
agonist potency at canine 5-HT2A compared to human 5-HT2A (canine 5-HT2A receptor [4]; functional Ca^2+ assay): higher potencies
Ki (canine 5-HT2B receptor [5]): 74.1 nM
Rel. eff. c5-HT2B (canine 5-HT2B receptor [6]): 1.19 ± 0.05

FC(F)(F)c1cccc(N2CCNCC2)c1 [TFMPP, N-(3-trifluoromethyl-henyl)piperazine]
Ki (human 5-HT2A receptor [7]): 87.1 nM
Ratio c5-HT2B vs. h5-HT2B (canine 5-HT2B receptor [10]): 1.04
Affinity constant pKI h5-HT2B (human 5-HT2B receptor [8]; CHO membranes, head: [^3H]-mesulergine, mean ± S.E.M of 3-8 experiments): 7.40 ± 0.05
Rel. eff. h5-HT2A (human 5-HT2A receptor [1]): 0.17 ± 0.01
Rel. eff h5-HT2B (human 5-HT2B receptor [2]; CHO): 0.49 ± 0.04
Ratio c5-HT2A vs. h5-HT2A (canine 5-HT2A receptor [11]): 2.45
Ki (canine 5-HT2A receptor [3]): 214 nM
Rel. eff. c5-HT2A (canine 5-HT2A receptor [4]): 0.72 ± 0.04
agonist potency at canine 5-HT2A compared to human 5-HT2A (canine 5-HT2A receptor [4]; functional Ca^2+ assay): higher potencies
Ki (canine 5-HT2B receptor [5]): 41.7 nM
agonistic response on canine 5-HT2B receptor (canine 5-HT2B receptor [6]; HEK-293, Ca^2+ FLIPR): no agonistic response

NCCc1c[nH]c2ccc(O)cc12 [5-HT, 5-hydroxytryptamine]
Rel. eff. h5-HT2A (human 5-HT2A receptor [1]): 1
peak fluorescence intensity of Ca^2+ response (human 5-HT2A receptor [1]): 15800 peak fluorescence intensity units
Ca^2+ response in non-transfected cells [12]: No signal
Ki (canine 5-HT2A receptor [3]): 178 nM
Rel. eff. c5-HT2A (canine 5-HT2A receptor [4]): 1
peak fluorescence intensity of Ca^2+ response (canine 5-HT2A receptor [4]; canine 5-HT2A, HEK-293, FIG. 5A): 13600 peak fluorescence intensity units

CSc1ccc2c(c1)C(N1CCN(C)CC1)Cc1ccccc1S2 (centres unmarked) [Methiothepin, methiothepin]
Ki (canine 5-HT2A receptor [11]): 3.55 nM
Antagonist affinity pKB c5-HT2A (canine 5-HT2A receptor [4]; [17]): 8.33 ± 0.09
antagonist affinity for canine 5-HT2A receptor compared to human 5-HT2A receptor (canine 5-HT2A receptor [4]; functional Ca^2+ assay, Table 4): eleven-fold higher affinity
Affinity constant pKI c5-HT2B (canine 5-HT2B receptor [5]; COS-7 membranes, head prints [^3H]-ketanserin, mean ± S.E.M of 3-8 experiments): 8.12 ± 0.16
Antagonist affinity pKB c5-HT2B (canine 5-HT2B receptor [6]; [17]): 8.07 ± 0.77

Cc1cc(NC(=O)Nc2ccc3c(ccn3C)c2)sn1 [SB-204741, N-(1-methyl-5-in-dolyl)-N′-(3-methyl-5-isothiazolyl) urea]
Ki (human 5-HT2B receptor [8]; [13]): 120 nM
Kb (human 5-HT2B receptor [2]; [15]): 44.7 nM
Ki (canine 5-HT2A receptor [3]): > 10000 nM
Kb (canine 5-HT2A receptor [4]): > 10000 nM
Ki (canine 5-HT2B receptor [5]; [14]): 182 nM
Kb (canine 5-HT2B receptor [6]; [16]): 44.7 nM

— US7728107B2 (priority 2005, dated 2010)
